What was measured:
[1] = test system: simple and complex partial seizures and secondarily generalized seizures; settings: clinical trials of human epilepsy; adjunctive therapy or monotherapy; cited from earlier work
lipoma = test: Effects of topiramate on lipoma in a dog; format: in vivo; settings: 12-year-old female German Shorthaired Pointer (30.8 kg), large lipoma on right rib cage; topiramate 25 mg/day once per day, 59 days versus 24 days
Method: FIG. 1A, depicts the size of a lipoma on a dog treated with topiramate for 24 days. FIG. 1B illustrates the reduction in lipoma size on the dog after topiramate had been administered for 59 days (25 mg/day administered once per day).

## CC1(C)O[C@@H]2[C@@H](CO[C@@]3(COS(N)(=O)=O)OC(C)(C)O[C@@H]23)O1 [topiramate, 2,3:4,5-bis-O-(1-methylethylidene)-β-D-fructopyranose sulfamate]
[1]
  efficacy in treating simple and complex partial seizures and secondarily generalized seizures: effective
lipoma
  reduction in lipoma size/mass: shrunk considerably

From US20070191288A1, “Treatments for Benign Tumors, Cancers, Neoplasias, and/or Other Inflammatory Disorders or Diseases” (priority 2002, published 2007)
